SMILES strings stand for the structures.

This note sets out measurements from patent US7419788B2, “Method for screening anti-bacterial agents” (priority 2001, dated 2008).

The assay has as its target T1, transpeptidase enzyme (PBP1b) (Escherichia coli, UniProt P02919).
T1 construct: the ponB gene encoding PBP1b is overexpressed since the strain contains a plasmid comprising a further copy of ponB under the control of its native promoter; made in house; host or cells: Escherichia coli AMA1004 ΔponA; pBS96 (membranes solubilised with 1% CHAPS and 1M NaCl; supernatant used)
Kind of assay: Scintillation proximity assay for formation of radiolabelled cross-linked peptidoglycan (transpeptidase inhibition). It counts as biochemical. On the procedure: 4 mg of Escherichia coli AMA1004 cell membranes prepared as described in WO 99/60155 were incubated with 5 ml of 100 mM ampicillin in 50 mM Tris HCl buffer pH 7.5 and 0.1 mM MgCl2 for 30 minutes at room temperature. The membranes were sedimented by centrifugation at 150,000×g for 15 minutes and then washed three times. They were finally resuspended in 1 ml of 50 mM Tris HCl buffer and 0.1 mM MgCl2. […]
The membranes of this E. coli strain were prepared as described in WO 99/60155. They were then treated with a detergent, 1% (3-[(3-cholamidopropyl)dimethylammonio]-1-propane-sulphonate (CHAPS), and 1M NaCl at a protein concentration of 5 mg/ml for 1 hour at room temperature. The mixture was then centrifuged at 150,000×g for 15 minutes in a Beckman table top ultracentrifuge and the supernatant containing PBP1b collected. The quantity of PBP1b protein used was the “soluble fraction” equivalent to 5 μg of starting membrane. […]
The microtitre plate was left for 3 to 10 hours at room temperature before being counted in the “Microbeta Trilux” counter. […]
Table 1 below enumerates the inhibitory effects of penicillin G on the transpeptidase enzyme (after subtracting the corresponding 0% reaction readings).
In general terms: Scintillation proximity formats need no separation of bound from free tracer.

T1 sequence (P02919 whole entry): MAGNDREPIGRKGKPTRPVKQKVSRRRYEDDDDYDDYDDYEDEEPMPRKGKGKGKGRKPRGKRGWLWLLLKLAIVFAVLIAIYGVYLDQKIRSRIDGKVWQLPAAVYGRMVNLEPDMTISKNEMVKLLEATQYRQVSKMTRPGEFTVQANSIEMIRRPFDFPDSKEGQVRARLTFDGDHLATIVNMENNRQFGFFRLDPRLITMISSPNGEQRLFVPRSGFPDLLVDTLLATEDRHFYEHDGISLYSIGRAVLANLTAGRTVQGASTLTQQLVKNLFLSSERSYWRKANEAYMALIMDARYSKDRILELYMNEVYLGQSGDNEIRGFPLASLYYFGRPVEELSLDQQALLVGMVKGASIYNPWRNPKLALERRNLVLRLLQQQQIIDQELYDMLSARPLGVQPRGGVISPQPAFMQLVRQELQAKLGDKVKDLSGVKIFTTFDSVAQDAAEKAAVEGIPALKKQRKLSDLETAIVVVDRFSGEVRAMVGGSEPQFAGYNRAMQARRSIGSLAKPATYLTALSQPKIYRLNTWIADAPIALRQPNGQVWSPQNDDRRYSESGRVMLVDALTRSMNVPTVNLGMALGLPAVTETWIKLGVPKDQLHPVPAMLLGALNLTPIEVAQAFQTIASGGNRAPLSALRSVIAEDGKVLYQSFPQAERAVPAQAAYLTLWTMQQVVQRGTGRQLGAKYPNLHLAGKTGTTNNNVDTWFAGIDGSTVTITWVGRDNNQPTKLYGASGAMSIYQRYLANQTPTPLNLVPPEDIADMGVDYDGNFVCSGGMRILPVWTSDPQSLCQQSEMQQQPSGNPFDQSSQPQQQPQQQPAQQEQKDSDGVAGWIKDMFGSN

What is called % Inhibition is the share of the control response that was lost under treatment. Low values mean a response near the control, high ones a response far below the control. In the case of `CC1(C)S[C@@H]2[C@H](NC(=O)Cc3ccccc3)C(=O)N2[C@H]1C(=O)O` [Penicillin G, penicillin G], under “after subtracting the corresponding 0% reaction readings, PBP1b extract from E. coli AMA1004 ΔponA, pBS96, ampicillin-treated AMA1004 membranes, 37° C. for 15 minutes”, the Counts per minute is recorded as 319. Also, under “inhibitory effect on the transpeptidase enzyme, relative to wells with no test compound (100% reaction controls), test concentration not given”, the “% Inhibition” value is given as 94%.
